Data on one molecule can be found in US12486253B2, “Therapeutics for the degradation of mutant BRAF” (C4 THERAPEUTICS, INC., priority 2021, dated 2025).

“Also recorded” adds a separate entry of the source.

In assay [1] the target is T1, BRAF V600E (Homo sapiens, UniProt P15056, V600E). Put plainly: Western blot of BRAF V600E levels in A375 cells. It is filed as cell-based. The arrangement: host or cells: A375.
In assay [2] the test system is A375 tumors. Put plainly: In vivo efficacy in A375 xenografts. The arrangement: species or system BALB/c nude mice.
Assay [3] addresses T2, ARAF (Homo sapiens, UniProt P10398). Nature of the assay: Global proteomics profiling, A375 cells. As to conditions: 300 nM, 24 hours. On the set-up: endogenous in cells; host or cells: A375 (A7.2). In kind it is cell-based. How it is done: (§1) Each cell line was treated in duplicate with either DMSO or Compound 157 (final concentration 300 nM) for 24 hours in an incubator at 37° C. with 5% CO2. After the 24-hour incubation, cells were harvested, washed twice with PBS, and snap frozen in liquid nitrogen. Samples were re-suspended in lysis buffer [8 M urea, 50 mM HEPES (pH 8.5), 50 mM NaCl, 1× protease inhibitor cocktail] and lysed by sonication at 4° C. with 85% amplitude in a pulse setting with 30 seconds on and 30 seconds off for a total sonication time of 5 minutes. Lysates were centrifuged at maximum speed for 10 minutes at 4° C. and the supernatant collected, reduced for 1 hour at room temperature with 5 mM TCEP, and the cysteine residues were then alkylated with 15 mM iodoacetamide (room temperature, in dark, 30 minutes). Protein content was extracted by methanol-chloroform precipitation and subsequent ice-cold acetone washes. Protein pellets were resuspended in 8 M urea, 50 mM HEPES (pH 8.5) buffer and protein concentrations were measured by BCA assay. […]
(§2) For peptide tandem mass tag (TMT) labeling, 100 μg of peptides per sample was prepared at […] concentration in 200 mM HEPES (pH 8.5), 30% acetonitrile (ACN) and each the specific TMT reagent. […] TMT reporter ion intensities were quantified by extracting the signal-to-noise ratio for each. […]

Assay [4] has as its system A375 cells. Put plainly: Cellular confluence of A375 cells by live cell imaging. Conditions: end of the 7-day experiment. It is filed as cell-based.
The target of assay [5] is RAF1 (a.k.a CRAF) (Homo sapiens, UniProt P04049). Put plainly: Global proteomics profiling, JURKAT cells. In kind it is cell-based. The arrangement: endogenous in cells; host or cells: JURKAT, ATCC TIB-152 (A12.2). Conditions: 300 nM, 24 hours. Here is the method: as §1, §2
Sequence of RAF1 (a.k.a CRAF) (P04049 whole entry): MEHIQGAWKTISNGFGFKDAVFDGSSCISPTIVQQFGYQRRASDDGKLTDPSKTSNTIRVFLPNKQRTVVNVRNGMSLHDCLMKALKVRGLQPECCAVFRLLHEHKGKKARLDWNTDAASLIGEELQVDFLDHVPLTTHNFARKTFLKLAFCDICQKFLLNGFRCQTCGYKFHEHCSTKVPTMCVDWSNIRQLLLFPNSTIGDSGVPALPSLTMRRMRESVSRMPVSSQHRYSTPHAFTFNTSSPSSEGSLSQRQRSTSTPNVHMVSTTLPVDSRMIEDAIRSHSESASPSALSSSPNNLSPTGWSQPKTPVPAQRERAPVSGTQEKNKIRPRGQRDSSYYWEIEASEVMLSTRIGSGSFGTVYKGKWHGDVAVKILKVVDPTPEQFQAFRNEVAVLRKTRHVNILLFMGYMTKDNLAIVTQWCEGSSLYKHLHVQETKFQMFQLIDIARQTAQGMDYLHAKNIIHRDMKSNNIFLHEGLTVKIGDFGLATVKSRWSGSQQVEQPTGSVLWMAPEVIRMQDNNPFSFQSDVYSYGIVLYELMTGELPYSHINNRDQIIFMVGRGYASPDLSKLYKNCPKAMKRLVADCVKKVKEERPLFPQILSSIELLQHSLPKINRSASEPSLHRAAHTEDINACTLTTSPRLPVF
The target in assay [6] is T1, BRAF V600E. Put plainly: Western blot of engineered HEK-293T cells expressing BRAF V600E. Conditions: lentivirus expression. It is filed as cell-based.
Assay [7] concerns the target T2, ARAF. Put plainly: Global proteomics profiling, JURKAT cells. It is filed as cell-based. On the set-up: endogenous in cells; host or cells: JURKAT, ATCC TIB-152 (A11.2). As to conditions: 300 nM, 24 hours. Here is the method:
as §1, §2

T1 sequence (P15056 whole entry V600E): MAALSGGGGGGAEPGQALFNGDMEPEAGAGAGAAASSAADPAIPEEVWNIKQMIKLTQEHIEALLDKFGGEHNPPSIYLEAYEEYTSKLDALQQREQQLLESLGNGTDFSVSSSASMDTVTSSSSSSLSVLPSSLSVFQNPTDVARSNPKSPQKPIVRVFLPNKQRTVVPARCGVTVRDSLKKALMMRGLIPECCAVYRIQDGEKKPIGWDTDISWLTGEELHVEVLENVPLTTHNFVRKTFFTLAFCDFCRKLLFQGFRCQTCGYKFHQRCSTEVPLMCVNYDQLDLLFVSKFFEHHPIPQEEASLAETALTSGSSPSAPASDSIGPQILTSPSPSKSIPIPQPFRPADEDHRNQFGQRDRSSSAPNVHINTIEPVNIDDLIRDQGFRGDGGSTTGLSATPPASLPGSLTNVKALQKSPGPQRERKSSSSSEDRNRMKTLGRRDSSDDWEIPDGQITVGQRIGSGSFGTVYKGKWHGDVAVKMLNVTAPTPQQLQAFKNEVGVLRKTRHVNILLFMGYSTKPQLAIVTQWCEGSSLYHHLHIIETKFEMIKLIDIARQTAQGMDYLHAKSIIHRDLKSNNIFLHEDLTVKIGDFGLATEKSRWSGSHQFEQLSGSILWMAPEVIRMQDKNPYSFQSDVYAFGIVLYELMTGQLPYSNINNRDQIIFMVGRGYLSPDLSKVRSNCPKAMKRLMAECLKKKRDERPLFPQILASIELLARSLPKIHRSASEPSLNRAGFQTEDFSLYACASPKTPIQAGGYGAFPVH
T2 sequence (P10398 whole entry): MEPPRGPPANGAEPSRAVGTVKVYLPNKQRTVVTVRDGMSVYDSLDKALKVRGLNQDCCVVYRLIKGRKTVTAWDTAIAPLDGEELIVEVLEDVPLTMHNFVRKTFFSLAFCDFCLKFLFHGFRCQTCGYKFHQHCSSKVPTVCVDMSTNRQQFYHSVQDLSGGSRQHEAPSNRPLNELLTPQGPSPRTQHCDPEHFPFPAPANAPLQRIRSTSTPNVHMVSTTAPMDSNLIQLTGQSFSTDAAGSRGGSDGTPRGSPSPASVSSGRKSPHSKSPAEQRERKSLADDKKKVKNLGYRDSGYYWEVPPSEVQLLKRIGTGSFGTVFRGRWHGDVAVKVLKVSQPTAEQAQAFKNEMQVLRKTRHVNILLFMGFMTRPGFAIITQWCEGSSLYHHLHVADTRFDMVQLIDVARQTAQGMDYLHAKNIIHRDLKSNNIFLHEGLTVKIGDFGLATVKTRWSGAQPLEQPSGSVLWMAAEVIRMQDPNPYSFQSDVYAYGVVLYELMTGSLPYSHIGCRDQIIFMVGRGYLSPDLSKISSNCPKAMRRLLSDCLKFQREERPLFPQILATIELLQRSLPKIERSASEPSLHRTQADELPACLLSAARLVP

As for `CCN(C)S(=O)(=O)Nc1ccc(F)c(Oc2ccc3ncn([C@H]4COC5(CCN(C(=O)CC6(O)CCN(c7cc8c(cc7F)c(N7CCC(=O)NC7=O)nn8C)CC6)CC5)C4)c(=O)c3c2)c1C#N` [Compound 157, (3R)-3-[6-[2-cyano-3-[[ethyl(methyl)sulfamoyl]amino]-6-fluorophenoxy]-4-oxoquinazolin-3-yl]-8-[2-[1-[3-(2,4-dioxo-1,3-diazinan-1-yl)-5-fluoro-1-methylindazol-6-yl]-4-hydroxypiperidin-4-yl]acetyl]-1-oxa-8-azaspiro[4.5]decane], in assay [1], the “BRAF V600E levels” value is “significantly decreased; also recorded: decrease in a dose dependent manner”. Also, in assay [2] (oral delivery), the “efficacy compared with encorafenib” value is given as “more efficacious than a clinically relevant dose of encorafenib”. For the same molecule, the tumor response result in assay [2] (oral, 10 mg/kg BID) was “profound tumor regressions”. Besides, the figures for the “ARAF protein level change” value in assay [3] and in assay [7] were “remain largely unchanged” and “unchanged”, respectively. For the same molecule, the cellular confluence in assay [4] is on record as ~20%. Further, in assay [5], the “RAF1 (CRAF) protein level change” value is on record as “unchanged”. Besides, in assay [6], the “degradation of BRAF V600E” value is reported as “capable of degrading”.
